Experimental data from ChEMBL document CHEMBL3885861, “Open TG-GATES”.

Species: Rattus norvegicus
Test: Open TG-GATES - Regimen: Daily Repeat
Assay type: toxicity, organism-based, Sprague-Dawley
Design: regimen Daily Repeat, gender Male, age 6 weeks
Conditions: in vivo, iv, route intravenous injection; for gamma-GTP / A/G / ALP / ALT / AST / BUN / CRE / Ca / Cl / DBIL / GLC / IP / K / LDH / Na / PL / RALB / TBIL / TC / TG / TP: tissue Plasma; for APTT / Bas / Eos / Fbg / Hb / Ht / Lym / MCH / MCHC / MCV / Mono / Neu / PT / Plat / RBC / Ret / WBC: tissue Blood; for KIDNEY_L / KIDNEY_R / KIDNEY_TOTAL: tissue Kidney; for LIVER: tissue Liver
[1] = 0 mg/kg, […], dose level Control, time 28 day
[2] = 4 mg/kg, 72 h, dose level Low, time 3 day
[3] = 4 mg/kg, […], dose level Low, time 7 day
[4] = 4 mg/kg, […], dose level Low, time 14 day
[5] = 4 mg/kg, […], dose level Low, time 28 day

## CN(C)c1ncnc2c1ncn2[C@@H]1O[C@H](CO)[C@@H](N)[C@H]1O [PUROMYCIN AMINONUCLEOSIDE]
0 mg/kg, […], dose level Control, time 14 day
  gamma-GTP: 2 IU/L
[1]
  A/G: 1
  ALP: 1115.6 IU/L
  ALT: 31 IU/L
  AST: 60.5 IU/L
  BUN: 18.6 mg/dL
  CRE: 0.2 mg/dL
  Ca: 10.4 mg/dL
  Cl: 104.2 meq/L
  DBIL: 0 mg/dL
  GLC: 184.8 mg/dL
  IP: 6.1 mg/dL
  K: 4.2 meq/L
  LDH: 174 IU/L
  Na: 142.6 meq/L
  PL: 133.4 mg/dL
  RALB: 3.1 g/dL
  TBIL: 0.01 mg/dL
  TC: 68.2 mg/dL
  TG: 101.2 mg/dL
  TP: 6.1 g/dL
  gamma-GTP: 2 IU/L
[2]
  TERMINAL_BW: 232.9 g
  APTT: 20.8 s
  Bas: 0%
  Eos: 1%
  Fbg: 318.6 mg/dL
  Hb: 13.1 g/dL
  Ht: 38.3%
  Lym: 78.6%
  MCH: 21.3 pg
  MCHC: 34.3%
  MCV: 62.1 fL
  Mono: 3%
  Neu: 16.2%
  PT: 15.9 s
  Plat: 136.9 x10_4/uL
  RBC: 616 x10_4/ul
  Ret: 5.3%
  WBC: 98.6 x10_2/uL
  KIDNEY_L: 1 g
  KIDNEY_R: 1 g
  KIDNEY_TOTAL: 1.9 g
  LIVER: 10.2 g
  A/G: 1.3
  ALP: 1424.8 IU/L
  ALT: 40.8 IU/L
  AST: 73.4 IU/L
  BUN: 17.4 mg/dL
  CRE: 0.2 mg/dL
  Ca: 11.1 mg/dL
  Cl: 104.2 meq/L
  DBIL: 0 mg/dL
  GLC: 189.4 mg/dL
  IP: 7.6 mg/dL
  K: 4.4 meq/L
  LDH: 200.6 IU/L
  Na: 141.6 meq/L
  PL: 149.2 mg/dL
  RALB: 3 g/dL
  TBIL: 0.02 mg/dL
  TC: 76 mg/dL
  TG: 102.2 mg/dL
  TP: 5.5 g/dL
  gamma-GTP: 1.2 IU/L
[3]
  TERMINAL_BW: 256.3 g
  APTT: 21 s
  Bas: 0%
  Eos: 1.4%
  Fbg: 282.8 mg/dL
  Hb: 13.4 g/dL
  Ht: 38.8%
  Lym: 76.4%
  MCH: 20.5 pg
  MCHC: 34.4%
  MCV: 59.4 fL
  Mono: 2%
  Neu: 19.2%
  PT: 15.9 s
  Plat: 118.6 x10_4/uL
  RBC: 654.8 x10_4/ul
  Ret: 3.7%
  WBC: 112.4 x10_2/uL
  KIDNEY_L: 1 g
  KIDNEY_R: 1.1 g
  KIDNEY_TOTAL: 2.1 g
  LIVER: 11 g
  A/G: 1.2
  ALP: 1296.4 IU/L
  ALT: 37.8 IU/L
  AST: 67.8 IU/L
  BUN: 17 mg/dL
  CRE: 0.2 mg/dL
  Ca: 10.6 mg/dL
  Cl: 107.2 meq/L
  DBIL: 0 mg/dL
  GLC: 180.6 mg/dL
  IP: 6.7 mg/dL
  K: 4.1 meq/L
  LDH: 149.6 IU/L
  Na: 142.6 meq/L
  PL: 139.4 mg/dL
  RALB: 3 g/dL
  TBIL: 0.014 mg/dL
  TC: 73.4 mg/dL
  TG: 87.8 mg/dL
  TP: 5.5 g/dL
[4]
  TERMINAL_BW: 310.3 g
  APTT: 23.5 s
  Bas: 0%
  Eos: 0.8%
  Fbg: 303.4 mg/dL
  Hb: 13.6 g/dL
  Ht: 38.9%
  Lym: 77.8%
  MCH: 20.7 pg
  MCHC: 35%
  MCV: 59.1 fL
  Mono: 2.4%
  Neu: 18%
  PT: 16.3 s
  Plat: 133.5 x10_4/uL
  RBC: 658 x10_4/ul
  Ret: 4.7%
  WBC: 105.4 x10_2/uL
  KIDNEY_L: 1.2 g
  KIDNEY_R: 1.3 g
  KIDNEY_TOTAL: 2.5 g
  LIVER: 12.6 g
[5]
  TERMINAL_BW: 371.4 g
  APTT: 23.1 s
  Bas: 0%
  Eos: 1.6%
  Fbg: 538.4 mg/dL
  Hb: 14.5 g/dL
  Ht: 40%
  Lym: 72.8%
  MCH: 20.2 pg
  MCHC: 36.3%
  MCV: 55.6 fL
  Mono: 3.2%
  Neu: 21.8%
  PT: 14.6 s
  Plat: 134.3 x10_4/uL
  RBC: 719.6 x10_4/ul
  Ret: 2.5%
  WBC: 156.1 x10_2/uL
  KIDNEY_L: 1.5 g
  KIDNEY_R: 1.4 g
  KIDNEY_TOTAL: 2.9 g
  LIVER: 16.8 g
